Each structure is given as a SMILES string. pKi: −log10 of the molar value. A value given as a limit tells only on which side of the number the result lay.

The assay addresses T1, Dimer of Gag-Pol polyprotein [501-599,Q508K,L534I,L564I,C568A,C596A] (Human immunodeficiency virus 1, UniProt P03367, C568A/C596A/L534I/L564I/Q508K).
T1 construct: 501-599
In words: Protease Inhibition Assay. Conditions: pH 6.4; 25 °C. As for the experimental part:
The Ki values were determined using fluorogenic substrate, 2-(aminobenzoyl)-Thr-Ile-Nle-Phe(p-NO2)-Gln-ArgNH2. A standard curve relating changes in fluorescent intensity to changes in concentration of product was used to convert fluorescent changes into molar velocities. The amount of cleavage was determined by HPLC.
In turn, `C=CCCCCCCCC(OC(=O)N(CC=C)C[C@@H](O)[C@H](Cc1ccccc1)NC(=O)O[C@H]1CO[C@H]2OCC[C@H]21)c1ccccc1` (stereo partly drawn) [(3R,3aS,6aR)-hexahydrofuro[2,3-b]furan-3-yl N-[(2S,3R)-3-hydroxy-1-phenyl-4-({[(1-phenyldec-9-en-1-yl)oxy]carbonyl}(prop-2-en-1-yl)amino)butan-2-yl]carbamate] had a negative logarithm of the Ki (pKi) of under 6.00.
Molecule `O=C(N[C@@H](Cc1ccccc1)[C@H](O)CN1CCCCCCCCC=CCCOC1=O)O[C@H]1CO[C@H]2OCC[C@H]21` [(3R,3aS,6aR)-hexahydrofuro[2,3-b]furan-3-yl N-[(2S,3R)-3-hydroxy-4-(2-oxo-1-oxa-3-azacyclopentadec-12-en-3-yl)-1-phenylbutan-2-yl]carbamate] gave a pKi of 7.06.
In the case of `O=C(N[C@@H](Cc1ccccc1)[C@H](O)CN1CCCCCCCCCCCCOC1=O)O[C@H]1CO[C@H]2OCC[C@H]21` [(3R,3aS,6aR)-hexahydrofuro[2,3-b]furan-3-yl N-[(2S,3R)-3-hydroxy-4-(2-oxo-1-oxa-3-azacyclopentadecan-3-yl)-1-phenylbutan-2-yl]carbamate] it was 7.85.
As for `O=C(N[C@@H](Cc1ccccc1)[C@H](O)CN1CCCCCCCCCCCOC1=O)O[C@H]1CO[C@H]2OCC[C@H]21` [(3R,3aS,6aR)-hexahydrofuro[2,3-b]furan-3-yl N-[(2S,3R)-3-hydroxy-4-(2-oxo-1-oxa-3-azacyclotetradecan-3-yl)-1-phenylbutan-2-yl]carbamate], the figure is 7.10; as for `O=C(N[C@@H](Cc1ccccc1)[C@H](O)CN1CCCCCCCCCCC(c2ccccc2)OC1=O)O[C@H]1CO[C@H]2OCC[C@H]21` (stereo partly drawn) [(3R,3aS,6aR)-hexahydrofuro[2,3-b]furan-3-yl N-[(2S,3R)-3-hydroxy-4-(2-oxo-14-phenyl-1-oxa-3-azacyclotetradecan-3-yl)-1-phenylbutan-2-yl]carbamate], 6.72; as for `O=C(N[C@@H](Cc1ccccc1)[C@H](O)CN1CCCCCCCCC=CCC(c2ccccc2)OC1=O)O[C@H]1CO[C@H]2OCC[C@H]21` (stereo partly drawn) [(3R,3aS,6aR)-hexahydrofuro[2,3-b]furan-3-yl N-[(2S,3R)-3-hydroxy-4-(2-oxo-15-phenyl-1-oxa-3-azacyclopentadec-12-en-3-yl)-1-phenylbutan-2-yl]carbamate], 6.78.
Molecule `O=C(N[C@@H](Cc1ccccc1)[C@H](O)CN1CCCCCCCCCCCC(c2ccccc2)OC1=O)O[C@H]1CO[C@H]2OCC[C@H]21` (stereo partly drawn) [(3R,3aS,6aR)-hexahydrofuro[2,3-b]furan-3-yl N-[(2S,3R)-3-hydroxy-4-(2-oxo-15-phenyl-1-oxa-3-azacyclopentadecan-3-yl)-1-phenylbutan-2-yl]carbamate] gave a pKi of 6.45.
In the case of `O=C(N[C@@H](Cc1ccccc1)[C@H](O)CN1CCCCC=CCCCCCCC(c2ccccc2)OC1=O)O[C@H]1CO[C@H]2OCC[C@H]21` (stereo partly drawn) [(3R,3aS,6aR)-hexahydrofuro[2,3-b]furan-3-yl N-[(2S,3R)-3-hydroxy-4-(2-oxo-16-phenyl-1-oxa-3-azacyclohexadec-8-en-3-yl)-1-phenylbutan-2-yl]carbamate] it was 6.79.
As for `O=C(N[C@@H](Cc1ccccc1)[C@H](O)CN1CCCCCCCCCCCCC(c2ccccc2)OC1=O)O[C@H]1CO[C@H]2OCC[C@H]21` (stereo partly drawn) [(3R,3aS,6aR)-hexahydrofuro[2,3-b]furan-3-yl N-[(2S,3R)-3-hydroxy-4-(2-oxo-16-phenyl-1-oxa-3-azacyclohexadecan-3-yl)-1-phenylbutan-2-yl]carbamate], the figure is 6.57.
In the case of `CC1CC=CCCCCCCCCOC(=O)N1C[C@@H](O)[C@H](Cc1ccccc1)NC(=O)O[C@H]1CO[C@H]2OCC[C@H]21` (stereo partly drawn) [(3R,3aS,6aR)-hexahydrofuro[2,3-b]furan-3-yl N-[(2S,3R)-3-hydroxy-4-(4-methyl-2-oxo-1-oxa-3-azacyclopentadec-6-en-3-yl)-1-phenylbutan-2-yl]carbamate] it was 7.28; in that of `CC1CCCCCCCCCCCOC(=O)N1C[C@@H](O)[C@H](Cc1ccccc1)NC(=O)O[C@H]1CO[C@H]2OCC[C@H]21` (stereo partly drawn) [(3R,3aS,6aR)-hexahydrofuro[2,3-b]furan-3-yl N-[(2S,3R)-3-hydroxy-4-(4-methyl-2-oxo-1-oxa-3-azacyclopentadecan-3-yl)-1-phenylbutan-2-yl]carbamate], 7.52.
On to `CC1CC=CCCCCCCCOC(=O)N(C[C@@H](O)[C@H](Cc2ccccc2)NC(=O)O[C@H]2CO[C@H]3OCC[C@H]32)C1` (stereo partly drawn) [(3R,3aS,6aR)-hexahydrofuro[2,3-b]furan-3-yl N-[(2S,3R)-3-hydroxy-4-(5-methyl-2-oxo-1-oxa-3-azacyclopentadec-7-en-3-yl)-1-phenylbutan-2-yl]carbamate], for which the pKi is 7.96.
In the case of `CC1CCCCCCCCCCOC(=O)N(C[C@@H](O)[C@H](Cc2ccccc2)NC(=O)O[C@H]2CO[C@H]3OCC[C@H]32)C1` (stereo partly drawn) [(3R,3aS,6aR)-hexahydrofuro[2,3-b]furan-3-yl N-[(2S,3R)-3-hydroxy-4-(5-methyl-2-oxo-1-oxa-3-azacyclopentadecan-3-yl)-1-phenylbutan-2-yl]carbamate] it was 8.21; in that of `O=C(N[C@@H](Cc1ccccc1)[C@H](O)CN1C/C=C\CCCCCCCCOC1=O)O[C@H]1CO[C@H]2OCC[C@H]21` [(3R,3aS,6aR)-hexahydrofuro[2,3-b]furan-3-yl N-[(2S,3R)-3-hydroxy-4-[(5Z)-2-oxo-1-oxa-3-azacyclotetradec-5-en-3-yl]-1-phenylbutan-2-yl]carbamate], 6.90; in that of `O=C(N[C@@H](Cc1ccccc1)[C@H](O)CN1C/C=C\CCCCCCCC(c2ccccc2)OC1=O)O[C@H]1CO[C@H]2OCC[C@H]21` (stereo partly drawn) [(3R,3aS,6aR)-hexahydrofuro[2,3-b]furan-3-yl N-[(2S,3R)-3-hydroxy-4-[(5Z)-2-oxo-14-phenyl-1-oxa-3-azacyclotetradec-5-en-3-yl]-1-phenylbutan-2-yl]carbamate], 6.64.
In the case of `CC(C)(C)NC(=O)[C@@H]1C[C@@H]2CCCC[C@@H]2CN1C[C@@H](O)[C@H](Cc1ccccc1)NC(=O)O[C@H]1CO[C@H]2OCC[C@H]21` [(3R,3aS,6aR)-hexahydrofuro[2,3-b]furan-3-yl N-[(2S,3R)-4-[(3S,4aS,8aS)-3-(tert-butylcarbamoyl)-decahydroisoquinolin-2-yl]-3-hydroxy-1-phenylbutan-2-yl]carbamate] it was 8.70; in that of `C=CCCCCCCCCN(C[C@@H](O)[C@H](Cc1ccccc1)NC(=O)O[C@H]1CO[C@H]2OCC[C@H]21)C(=O)OC(CC=C)c1ccccc1` (stereo partly drawn) [(3R,3aS,6aR)-hexahydrofuro[2,3-b]furan-3-yl N-[(2S,3R)-4-[dec-9-en-1-yl({[(1-phenylbut-3-en-1-yl)oxy]carbonyl})amino]-3-hydroxy-1-phenylbutan-2-yl]carbamate], under 6.00; in that of `C=CCCCCCCC(OC(=O)N(CCCCC=C)C[C@@H](O)[C@H](Cc1ccccc1)NC(=O)O[C@H]1CO[C@H]2OCC[C@H]21)c1ccccc1` (stereo partly drawn) [(3R,3aS,6aR)-hexahydrofuro[2,3-b]furan-3-yl N-[(2S,3R)-4-[hex-5-en-1-yl({[(1-phenylnon-8-en-1-yl)oxy]carbonyl})amino]-3-hydroxy-1-phenylbutan-2-yl]carbamate], 6.35.
In turn, `C=CCCCCCCCCN(C[C@@H](O)[C@H](Cc1ccccc1)NC(=O)O[C@H]1CO[C@H]2OCC[C@H]21)C(=O)OCCC=C` [but-3-en-1-yl N-[(2R,3S)-3-({[(3R,3aS,6aR)-hexahydrofuro[2,3-b]furan-3-yloxy]carbonyl}amino)-2-hydroxy-4-phenylbutyl]-N-(dec-9-en-1-yl)carbamate] showed a pKi of under 6.00.
Molecule `C=CCCCCCCCCOC(=O)N(C[C@@H](O)[C@H](Cc1ccccc1)NC(=O)O[C@H]1CO[C@H]2OCC[C@H]21)C(C)CC=C` (stereo partly drawn) [dec-9-en-1-yl N-[(2R,3S)-3-({[(3R,3aS,6aR)-hexahydrofuro[2,3-b]furan-3-yloxy]carbonyl}amino)-2-hydroxy-4-phenylbutyl]-N-(pent-4-en-2-yl)carbamate] gave a pKi of under 6.00.
As for `C=CCCCCCCCCOC(=O)N(CC=C)C[C@@H](O)[C@H](Cc1ccccc1)NC(=O)O[C@H]1CO[C@H]2OCC[C@H]21` [dec-9-en-1-yl N-[(2R,3S)-3-({[(3R,3aS,6aR)-hexahydrofuro[2,3-b]furan-3-yloxy]carbonyl}amino)-2-hydroxy-4-phenylbutyl]-N-(prop-2-en-1-yl)carbamate], the figure is under 6.00; as for `C=CCCCCCCCOC(=O)N(CC(C)CC=C)C[C@@H](O)[C@H](Cc1ccccc1)NC(=O)O[C@H]1CO[C@H]2OCC[C@H]21` (stereo partly drawn) [non-8-en-1-yl N-[(2R,3S)-3-({[(3R,3aS,6aR)-hexahydrofuro[2,3-b]furan-3-yloxy]carbonyl}amino)-2-hydroxy-4-phenylbutyl]-N-(2-methylpent-4-en-1-yl)carbamate], under 6.00.

The values above are taken from BindingDB's records for doi:10.1016/s0960-894x(02)00300-1 (University of Illinois At Chicago, 2002).
